US20210087217A1, “NUCLEOTIDE HEMI-SULFATE SALT FOR THE TREATMENT OF HEPATITIS C VIRUS” (Atea Pharmaceuticals, Inc., priority 2017, published 2021)
Entries after “also recorded” stand apart in the source; their conditions may differ. Structures can show the parent of a compound that is named as a salt.

Columns and labels:
[1] = Single ascending dose study of Compound 2 in GT1-HCV infected patients (Part B): safety, tolerability, pharmacokinetic; assay type: in vivo, human
Procedure: Subjects in Part B received a single dose of Compound 2 in the fasting state. Patients were confined to the clinic from Day −1 to Day 6.
Part B was initiated after the safety (through Day 5) and plasma pharmacokinetic (through 24 h) data review from Cohort 3a in Part A. Available safety data (through Day 5) and pharmacokinetic data (through 24 h) was reviewed for the first cohort in Part B (Cohort 1b) before enrolling subsequent Part B cohorts. Subsequent Part B cohorts were only dosed following review of available safety and pharmacokinetic data from the respective doses in Part A as well as available safety (through Day 5) from the prior Part B cohorts.
Patients infected with HCV were treatment-naïve, non-cirrhotic GT1-infected subjects with a viral load of ≥5 log10 IU/mL.
Pharmacokinetic of Compound 1 and nucleoside metabolite 1-7 were measured following the single dose of Compound 2. […] Values are reported as mean±SD, except or Tmax where median (range) is reported.
Plasma exposure of Compound 1 was dose-related while exposure of metabolite 1-7 was dose-proportional.

[2] = Plasma levels of metabolites following single oral dose of Compound 2, rats; assay type: in vivo, rat; settings: single oral dose of Compound 2
[3] = Chemical stability of Compound 2 at 25 and 40° C. over 6 months; assay type: physicochemical
Procedure: The container closure system for the study was a combination medicinal valve bag with a pharmaceutical laminated film over the pouch and desiccant silica gel between the two layers. […] Bags were then stored at 25° C./60% RH (relative humidity) and 40° C./75% RH (relative humidity). Organic purity, water content, ^1HNMR, DSC and Raman were measured at Time 0, Month 1, Month 2, Month 3 and Month 6.
The sample was dissolved in acetonitrile-water (90:10) (v/v). The gradient method is shown below.
At 25° C., the percent of degradation product increased from 0.03% at Day 0 to 0.08% after 6 months. At 40° C., the percent of degradation product increased from 0.03% to 0.39%. Over the course of 6 months, the percent of water increased approximately 0.6% at 25° C. and increased approximately 0.7% at 40° C.

[4] = Stability under refrigerator conditions (5 ± 3° C.) of Compound 2; assay type: physicochemical
Procedure: Three conditions were tested: accelerated stability (40 2° C./75±5% RH) over a 6-month time period, ambient stability (25±2° C./60±5% RH) over a 9-month period, and stability under refrigerator conditions (5 3° C.) over a 9-month time period. The results for accelerated stability, ambient stability, and refrigerator conditions are shown in Table 23, Table 24, and Table 25, respectively.
The only impurities detected even after 9 months were those from related substance 1 and water.

[5] = Part B, GT1-HCV infected patients

CNc1nc(N)nc2c1ncn2[C@@H]1O[C@H](CO[P@@](=O)(N[C@@H](C)C(=O)OC(C)C)Oc2ccccc2)[C@@H](O)[C@@]1(C)F [Compound 2, hemi-sulfate salt of isopropyl((S)-(((2R,3R,4R,5R)-5-(2-amino-6-(methylamino)-9H-purin-9-yl)-4-fluoro-3-hydroxy-4-methyltetrahydrofuran-2-yl)methoxy)(phenoxy)phosphoryl)-L-alaninate]
Intensity of adverse effects [1, 5]: mild to moderate
Serious adverse events [1, 5]: No serious adverse events
Time within which Compound 1 was absorbed and metabolized ([1]; all cohorts from Part B, single dose of Compound 2): ≤ 8 h
Tolerability ([1]; hepatitis C infected patients, single oral dose): well tolerated
Plasma exposure of Compound 1 versus dose ([1]; single dose of Compound 2): dose-related
Plasma exposure of metabolite 1-7 versus dose ([1]; single dose of Compound 2): mostly dose-proportional
Compound 1 exposure [2]: low levels
Metabolite 1-7 levels [2]: high levels
Increase of the percent of water over 6 months ([3]; 25° C.): approximately 0.6%
Maximum Impurity Percent ([3]; 25° C./60% RH, Day 0): 0.12%
Percent Purity ([3]; 25° C./60% RH, Day 0): 99.82%
Percent Water ([3]; 25° C./60% RH, Day 0): 1.2%
1HNMR compared with Day 0 ([3]; 25° C./60% RH, Month 1): The same as
DSC compared with Day 0 ([3]; 25° C./60% RH, Month 1): The same as
Maximum Impurity Percent ([3]; 25° C./60% RH, Month 1): 0.12%
Percent Purity ([3]; 25° C./60% RH, Month 1): 99.77%
Percent Water ([3]; 25° C./60% RH, Month 1): 1.9%
Raman compared with Day 0 ([3]; 25° C./60% RH, Month 1): The same as
1HNMR compared with Day 0 ([3]; 25° C./60% RH, Month 2): The same as
DSC compared with Day 0 ([3]; 25° C./60% RH, Month 2): The same as
Maximum Impurity Percent ([3]; 25° C./60% RH, Month 2): 0.12%
Percent Purity ([3]; 25° C./60% RH, Month 2): 99.75%
Percent Water ([3]; 25° C./60% RH, Month 2): 1.8%
Raman compared with Day 0 ([3]; 25° C./60% RH, Month 2): The same as
1HNMR compared with Day 0 ([3]; 25° C./60% RH, Month 3): The same as
DSC compared with Day 0 ([3]; 25° C./60% RH, Month 3): The same as
Maximum Impurity Percent ([3]; 25° C./60% RH, Month 3): 0.12%
Percent Purity ([3]; 25° C./60% RH, Month 3): 99.75%
Percent Water ([3]; 25° C./60% RH, Month 3): 1.8%
Raman compared with Day 0 ([3]; 25° C./60% RH, Month 3): The same as
1HNMR compared with Day 0 ([3]; 25° C./60% RH, Month 6): The same as
DSC compared with Day 0 ([3]; 25° C./60% RH, Month 6): The same as
Maximum Impurity Percent ([3]; 25° C./60% RH, Month 6): 0.13%
Percent Purity ([3]; 25° C./60% RH, Month 6): 99.74%
Percent Water ([3]; 25° C./60% RH, Month 6): 1.8%
Raman compared with Day 0 ([3]; 25° C./60% RH, Month 6): The same as
Increase of the percent of water over 6 months ([3]; 40° C.): approximately 0.7%
Maximum Impurity Percent ([3]; 40° C./75% RH, Day 0): 0.12%
Percent Purity ([3]; 40° C./75% RH, Day 0): 99.82%
Percent Water ([3]; 40° C./75% RH, Day 0): 1.2%
1HNMR compared with Day 0 ([3]; 40° C./75% RH, Month 1): The same as
DSC compared with Day 0 ([3]; 40° C./75% RH, Month 1): The same as
Maximum Impurity Percent ([3]; 40° C./75% RH, Month 1): 0.12%
Percent Purity ([3]; 40° C./75% RH, Month 1): 99.71%
Percent Water ([3]; 40° C./75% RH, Month 1): 2.0%
Raman compared with Day 0 ([3]; 40° C./75% RH, Month 1): The same as
1HNMR compared with Day 0 ([3]; 40° C./75% RH, Month 2): The same as
DSC compared with Day 0 ([3]; 40° C./75% RH, Month 2): The same as
Maximum Impurity Percent ([3]; 40° C./75% RH, Month 2): 0.12%
Percent Purity ([3]; 40° C./75% RH, Month 2): 99.63%
Percent Water ([3]; 40° C./75% RH, Month 2): 1.9%
Raman compared with Day 0 ([3]; 40° C./75% RH, Month 2): The same as
1HNMR compared with Day 0 ([3]; 40° C./75% RH, Month 3): The same as
DSC compared with Day 0 ([3]; 40° C./75% RH, Month 3): The same as
Maximum Impurity Percent ([3]; 40° C./75% RH, Month 3): 0.12%
Percent Purity ([3]; 40° C./75% RH, Month 3): 99.58%
Percent Water ([3]; 40° C./75% RH, Month 3): 1.9%
Raman compared with Day 0 ([3]; 40° C./75% RH, Month 3): The same as
1HNMR compared with Day 0 ([3]; 40° C./75% RH, Month 6): The same as
DSC compared with Day 0 ([3]; 40° C./75% RH, Month 6): The same as
Maximum Impurity Percent ([3]; 40° C./75% RH, Month 6): 0.14%
Percent Purity ([3]; 40° C./75% RH, Month 6): 99.30%
Percent Water ([3]; 40° C./75% RH, Month 6): 1.9%
Raman compared with Day 0 ([3]; 40° C./75% RH, Month 6): The same as
Rate of degradation ([3]; stored for 6 months at 25 and 40° C.): minimal
Total impurities of related substance 1 ([4]; 5° C., after 9 months): 0.01%
Water content ([4]; 5° C., after 9 months): 0.32%
Appearance ([4]; 5 ± 3° C., 0 month): White
Assay ([4]; 5 ± 3° C., 0 month): 98.8%
IR ([4]; 5 ± 3° C., 0 month): correspond
Related Substance 1 Any other single impurity ([4]; 5 ± 3° C., 0 month): 0.01%
Related Substance 1 Total Impurities ([4]; 5 ± 3° C., 0 month): 0.01%
Water ([4]; 5 ± 3° C., 0 month): 0.45%
Appearance ([4]; 5 ± 3° C., 1st month): White
Assay ([4]; 5 ± 3° C., 1st month): 101.1%
Related Substance 1 Any other single impurity ([4]; 5 ± 3° C., 1st month): 0.01%
Related Substance 1 Total Impurities ([4]; 5 ± 3° C., 1st month): 0.01%
Water ([4]; 5 ± 3° C., 1st month): 0.19%
Appearance ([4]; 5 ± 3° C., 3rd month): White
Assay ([4]; 5 ± 3° C., 3rd month): 100.2%
IR ([4]; 5 ± 3° C., 3rd month): correspond
Related Substance 1 Any other single impurity ([4]; 5 ± 3° C., 3rd month): 0.01%
Related Substance 1 Impurity B ([4]; 5 ± 3° C., 3rd month): 0.01%
Related Substance 1 Total Impurities ([4]; 5 ± 3° C., 3rd month): 0.03%
Water ([4]; 5 ± 3° C., 3rd month): 0.32%
Appearance ([4]; 5 ± 3° C., 6th month): White
Assay ([4]; 5 ± 3° C., 6th month): 98.6%
IR ([4]; 5 ± 3° C., 6th month): correspond
Related Substance 1 Any other single impurity ([4]; 5 ± 3° C., 6th month): 0.01%
Related Substance 1 Total Impurities ([4]; 5 ± 3° C., 6th month): 0.03%
Water ([4]; 5 ± 3° C., 6th month): 0.42%
Appearance ([4]; 5 ± 3° C., 9th month): Off-white
Assay ([4]; 5 ± 3° C., 9th month): 101.4%
IR ([4]; 5 ± 3° C., 9th month): correspond
Related Substance 1 Any other single impurity ([4]; 5 ± 3° C., 9th month): 0.01%
Related Substance 1 Total Impurities ([4]; 5 ± 3° C., 9th month): 0.01%
Water ([4]; 5 ± 3° C., 9th month): 0.32%
Stability ([4]; refrigerator conditions (5° C.), 9 months): very chemically stable; also recorded: stable
